Measured values from patent publication US20250270190A1, “KIT INHIBITORS” (BLUEPRINT MEDICINES CORPORATION, priority 2022, published 2025).

Biological target: T1, c-kit autophosphorylation (Phospho c-Kit Tyr721) in HMC 1.1 (exon 11/13) cells, V654A (Homo sapiens, UniProt P10721, V560G/V654A)
T1 construct: endogenous in cells; host or cells: HMC 1.1 (exon 11/13) cells
Assay: pKIT Meso Scale Discovery (MSD) assay, inhibition of autophosphorylation of KIT, HMC1.1_V654A
Assay type: cell-based
Conditions: Table 1, cell line not named for Table 1, b1056 names pKIT HMC1.1_V654A, read-out: Code (IC50 for inhibition of autophosphorylation of KIT, pKIT MSD assay)
Method in brief: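 HMC1.1 cells were serum-starved for 4 h in serum-free, iron-free, phenol red-free IMDM, then treated with compound in dose-response for 90 min at 37 °C. Staurosporine and DMSO served as controls. Lysates were analysed by MSD electrochemiluminescence immunoassay for phospho-c-Kit Tyr721, and % inhibition of autophosphorylation was derived.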

T1 sequence (P10721 26-976 V560G/V654A): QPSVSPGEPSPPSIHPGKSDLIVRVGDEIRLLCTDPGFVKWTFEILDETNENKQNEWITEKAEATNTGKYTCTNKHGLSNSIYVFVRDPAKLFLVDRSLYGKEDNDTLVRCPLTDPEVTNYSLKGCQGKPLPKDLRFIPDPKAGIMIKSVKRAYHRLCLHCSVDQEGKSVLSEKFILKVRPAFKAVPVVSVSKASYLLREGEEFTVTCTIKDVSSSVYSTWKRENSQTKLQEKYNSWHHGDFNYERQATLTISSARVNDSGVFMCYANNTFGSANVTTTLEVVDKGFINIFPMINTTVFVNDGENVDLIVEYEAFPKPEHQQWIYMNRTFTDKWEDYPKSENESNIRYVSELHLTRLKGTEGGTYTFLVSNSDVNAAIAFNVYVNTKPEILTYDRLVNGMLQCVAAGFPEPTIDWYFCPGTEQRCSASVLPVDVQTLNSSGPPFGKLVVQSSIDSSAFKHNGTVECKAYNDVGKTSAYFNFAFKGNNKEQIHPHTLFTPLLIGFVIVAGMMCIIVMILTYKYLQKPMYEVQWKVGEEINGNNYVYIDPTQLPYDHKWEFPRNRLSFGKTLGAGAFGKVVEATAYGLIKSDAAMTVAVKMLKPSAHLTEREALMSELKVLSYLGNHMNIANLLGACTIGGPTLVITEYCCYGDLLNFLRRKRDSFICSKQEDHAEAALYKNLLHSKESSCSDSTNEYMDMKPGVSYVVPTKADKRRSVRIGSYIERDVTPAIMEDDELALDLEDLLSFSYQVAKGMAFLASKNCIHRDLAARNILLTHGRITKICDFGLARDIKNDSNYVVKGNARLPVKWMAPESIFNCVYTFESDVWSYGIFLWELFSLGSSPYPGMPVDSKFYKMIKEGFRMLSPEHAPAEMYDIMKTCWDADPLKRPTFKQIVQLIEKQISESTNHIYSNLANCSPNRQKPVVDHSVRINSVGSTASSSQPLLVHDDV

Row | IC50 [nM] | Structure (SMILES)
1 | < 10 | COCCn1cc(-c2cnc(Nc3cc(N)nc(C(F)F)n3)cc2OC)cn1 [Compound 84, 2-(difluoromethyl)-N4-(4-methoxy-5-(1-(2-methoxyethyl)-1H-pyrazol-4-yl)pyridin-2-yl)pyrimidine-4,6-diamine]
2 | 10 to 40 | COc1cc(Nc2cc(N)nc(C(F)F)n2)ncc1-c1cnn(CC(C)O)c1 (stereo not shown) [Compound 85, 1-(4-(6-((6-amino-2-(difluoromethyl)pyrimidin-4-yl)amino)-4-methoxypyridin-3-yl)-1H-pyrazol-1-yl)propan-2-ol]
3 | 10 to 40 | CC(C)Nc1cc(Nc2cc(N)nc(C(F)F)n2)ncc1C(=O)NCC1CC1 [Compound 86, 6-((6-amino-2-(difluoromethyl)pyrimidin-4-yl)amino)-N-(cyclopropylmethyl)-4-(isopropylamino)nicotinamide]
4 | < 10 | CNC(=O)c1cnc(Nc2cc(N)nc(C(F)F)n2)cc1NC1(C)CCOC1 (stereo not shown) [Compound 89, 6-((6-amino-2-(difluoromethyl)pyrimidin-4-yl)amino)-N-methyl-4-((3-methyltetrahydrofuran-3-yl)amino)nicotinamide]
5 | < 10 | C[C@@H](CF)Nc1cc(Nc2cc(N)nc(C(F)F)n2)ncc1C(=O)NC1CC1 [Compound 90, (S)-6-((6-amino-2-(difluoromethyl)pyrimidin-4-yl)amino)-N-cyclopropyl-4-((1-fluoropropan-2-yl)amino)nicotinamide]
6 | < 10 | C[C@H](CF)Nc1cc(Nc2cc(N)nc(C(F)F)n2)ncc1C(=O)NC1CC1 [Compound 91, (R)-6-((6-amino-2-(difluoromethyl)pyrimidin-4-yl)amino)-N-cyclopropyl-4-((1-fluoropropan-2-yl)amino)nicotinamide]
7 | 10 to 40 | CNC(=O)c1cnc(Nc2cc(N)nc(C(F)F)n2)cc1NCc1ccccc1 [Compound 92, 6-((6-amino-2-(difluoromethyl)pyrimidin-4-yl)amino)-4-(benzylamino)-N-methylnicotinamide]
8 | 10 to 40 | CNc1cc(Nc2cc(N)nc(C(F)F)n2)ncc1C(=O)NCc1ccccn1 [Compound 93, 6-((6-amino-2-(difluoromethyl)pyrimidin-4-yl)amino)-4-(methylamino)-N-(pyridin-2-ylmethyl)nicotinamide]
9 | 10 to 40 | COc1cc(Nc2cc(N)nc(C(F)F)n2)ncc1-c1cnn(C(F)(F)F)c1 [Compound 94, 2-(difluoromethyl)-N4-(4-methoxy-5-(1-(trifluoromethyl)-1H-pyrazol-4-yl)pyridin-2-yl)pyrimidine-4,6-diamine]
10 | < 10 | Cn1cc(-c2cnc(Nc3cc(N)nc(C(F)F)n3)cc2OC(F)(F)F)cn1 [Compound 95, 2-(difluoromethyl)-N4-(5-(1-methyl-1H-pyrazol-4-yl)-4-(trifluoromethoxy)pyridin-2-yl)pyrimidine-4,6-diamine]
11 | 10 to 40 | CCNc1cc(Nc2cc(N)nc(CF)n2)ncc1C(=O)NC12CC(CO)(C1)C2 [Compound 96, 6-((6-amino-2-(fluoromethyl)pyrimidin-4-yl)amino)-4-(ethylamino)-N-(3-(hydroxymethyl)bicyclo[1.1.1]pentan-1-yl)nicotinamide]
12 | 10 to 40 | COc1cc(Nc2cc(N)nc(C(F)F)n2)ncc1-c1cnn(C2CCNC2)c1 (stereo not shown) [Compound 97, 2-(difluoromethyl)-N4-(4-methoxy-5-(1-(pyrrolidin-3-yl)-1H-pyrazol-4-yl)pyridin-2-yl)pyrimidine-4,6-diamine]
13 | 10 to 40 | CCOc1cc(Nc2cc(N)nc(C(F)F)n2)ncc1-c1cnn(C2CNC2)c1 [Compound 98, N4-(5-(1-(azetidin-3-yl)-1H-pyrazol-4-yl)-4-ethoxypyridin-2-yl)-2-(difluoromethyl)pyrimidine-4,6-diamine]
14 | < 10 | COc1cc(Nc2cc(N)nc(C(F)F)n2)ncc1-c1cnn(C2CN(C)C2)c1 [Compound 103, 2-(difluoromethyl)-N4-(4-methoxy-5-(1-(1-methylazetidin-3-yl)-1H-pyrazol-4-yl)pyridin-2-yl)pyrimidine-4,6-diamine]
15 | < 10 | Cn1cc(-c2cnc(Nc3cc(N)nc(C(F)F)n3)cc2OCC2COC2)cn1 [Compound 104, 2-(difluoromethyl)-N4-(5-(1-methyl-1H-pyrazol-4-yl)-4-(oxetan-3-ylmethoxy)pyridin-2-yl)pyrimidine-4,6-diamine]
16 | 10 to 40 | Cn1cc(-c2cnc(Nc3cc(N)nc(C(F)F)n3)cc2OCC2CCO2)cn1 (stereo not shown) [Compound 105, 2-(difluoromethyl)-N4-(5-(1-methyl-1H-pyrazol-4-yl)-4-(oxetan-2-ylmethoxy)pyridin-2-yl)pyrimidine-4,6-diamine]
17 | < 10 | Cn1cc(-c2cnc(Nc3cc(N)nc(C(F)F)n3)cc2OC2CCOC2)cn1 (stereo not shown) [Compound 106, 2-(difluoromethyl)-N4-(5-(1-methyl-1H-pyrazol-4-yl)-4-((tetrahydrofuran-3-yl)oxy)pyridin-2-yl)pyrimidine-4,6-diamine]
18 | 10 to 40 | Cn1cc(-c2cnc(Nc3cc(N)nc(C(F)F)n3)cc2O[C@H]2C[C@@H](O)C2)cn1 [Compound 107, (1s,3s)-3-((2-((6-amino-2-(difluoromethyl)pyrimidin-4-yl)amino)-5-(1-methyl-1H-pyrazol-4-yl)pyridin-4-yl)oxy)cyclobutan-1-ol]
19 | < 10 | Nc1cc(Nc2cc(OC3CC3)c(-c3cnn(CCO)c3)cn2)nc(C(F)F)n1 [Compound 108, 2-(4-(6-((6-amino-2-(difluoromethyl)pyrimidin-4-yl)amino)-4-cyclopropoxypyridin-3-yl)-1H-pyrazol-1-yl)ethan-1-ol]
20 | < 10 | COc1cc(Nc2cc(N)nc(C(F)F)n2)ncc1-c1cnn(CC2CCO2)c1 (stereo not shown) [Compound 111, 2-(difluoromethyl)-N4-(4-methoxy-5-(1-(oxetan-2-ylmethyl)-1H-pyrazol-4-yl)pyridin-2-yl)pyrimidine-4,6-diamine]
21 | 10 to 40 | COc1cc(Nc2cc(N)nc(C(F)F)n2)ncc1-c1cnn(C2CC(O)C2)c1 (stereo not shown) [Compound 112, 3-(4-(6-((6-amino-2-(difluoromethyl)pyrimidin-4-yl)amino)-4-methoxypyridin-3-yl)-1H-pyrazol-1-yl)cyclobutan-1-ol]
22 | < 10 | CCNc1cc(Nc2cc(N)nc(C(F)F)n2)ncc1C(=O)NCc1cocn1 [Compound 113, 6-((6-amino-2-(difluoromethyl)pyrimidin-4-yl)amino)-4-(ethylamino)-N-(oxazol-4-ylmethyl)nicotinamide]
23 | 10 to 40 | CCNc1cc(Nc2cc(N)nc(C(F)F)n2)ncc1C(=O)NCc1ncco1 [Compound 114, 6-((6-amino-2-(difluoromethyl)pyrimidin-4-yl)amino)-4-(ethylamino)-N-(oxazol-2-ylmethyl)nicotinamide]
24 | 10 to 40 | COc1cc(Nc2cc(N)nc(C(F)F)n2)ncc1-c1cnn(CCN(C)C)c1 [Compound 115, 2-(difluoromethyl)-N4-(5-(1-(2-(dimethylamino)ethyl)-1H-pyrazol-4-yl)-4-methoxypyridin-2-yl)pyrimidine-4,6-diamine]
25 | < 10 | CCOc1cc(Nc2cc(N)nc(C(F)F)n2)ncc1-c1cnn(CCNC)c1 [Compound 119, 2-(difluoromethyl)-N4-(4-ethoxy-5-(1-(2-(methylamino)ethyl)-1H-pyrazol-4-yl)pyridin-2-yl)pyrimidine-4,6-diamine]
